Test results published in ChEMBL document CHEMBL1138726, “Novel diarylsulfonylurea derivatives as potent antimitotic agents” (Bioorg Med Chem Lett, 2004).

Legend:
NCI-H460 = assay: Compound was tested for growth inhibition of human non-small cell lung cancer NCI-H460 cell line; type: functional
A549 = assay: Inhibition of human non-small cell lung cancer A549 cell proliferation; type: functional
[1] = Compound was tested for inhibition of tubulin polymerisation
HCT-116 = assay: Compound was tested for growth inhibition of human colon carcinoma HCT116 cell line; type: functional
HCT-15 = assay: Compound was tested for growth inhibition of multidrug resistant tumor HCT-15 cell line; type: functional; conditions: Homo sapiens
A498 = assay: Compound was tested for growth inhibition of multidrug resistant tumor A498 cell line; type: functional; conditions: Homo sapiens
NCI-H226 = assay: Compound was tested for growth inhibition of multidrug resistant tumor NCI-H226 cell line; type: functional; conditions: Homo sapiens
NCI/ADR-RES = assay: Compound was tested for growth inhibition of multidrug resistant tumor MCF-7/ADR cell line; type: functional; conditions: Homo sapiens
MCF7 = assay: Compound was tested for growth inhibition of MCF-7 cell line (non multidrug resistant); type: functional; conditions: Homo sapiens
[2] = Compound was tested for inhibition of tubulin polymerisation at 1 uM

inhibition [2] [%]	Compound	GI50 (NCI-H460) [nM]	GI50 (A549) [nM]	IC50 [1] [nM]	GI50 (HCT-116) [nM]	GI50 (HCT-15) [nM]	GI50 (A498) [nM]	GI50 (NCI-H226) [nM]	GI50 (NCI/ADR-RES) [nM]	GI50 (MCF7) [nM]
	O=C(c1cc(Cl)nc(Cl)c1)N1CCc2cc(S(=O)(=O)N3C[C@H](c4ccccc4)NC3=O)ccc21	700	380	22000	380					
	CC(=O)O[C@H]1C(=O)[C@@]2(C)[C@H]([C@H](OC(=O)c3ccccc3)[C@]3(O)C[C@H](OC(=O)[C@H](O)[C@@H](NC(=O)c4ccccc4)c4ccccc4)C(C)=C1C3(C)C)[C@]1(OC(C)=O)CO[C@@H]1C[C@@H]2O [PACLITAXEL]	7	10		< 1	300	3500	20000	8000	10
	Nc1ccc(C(=O)N2CCc3cc(S(=O)(=O)N4CC(c5cccs5)NC4=O)ccc32)cc1 (centres undefined)	250	180	10500	300					
	Nc1ccc(C(=O)N2CCc3cc(S(=O)(=O)N4C[C@H](c5ccccc5)NC4=O)ccc32)cc1	20	20	1500	10	120	1200	100	2000	10
	Nc1ccc(C(=O)N2CCc3cc(S(=O)(=O)N4CC(c5ccc(F)cc5)NC4=O)ccc32)cc1 (centres undefined)	900	1200		1100					
	O=C(NCCN1CCOCC1)N1CCc2cc(S(=O)(=O)N3C[C@H](c4ccccc4)NC3=O)ccc21	1000	2800		1200					
	CCOC(=O)Nc1ccc(S(=O)(=O)N2C[C@H](c3ccccc3)NC2=O)cc1C	70	40	6000	70	100	130	450	150	150
82	O=C(Cc1cccs1)N1CCc2cc(S(=O)(=O)N3C[C@H](c4ccccc4)NC3=O)ccc21	7	7	< 1000	6					
	O=C(c1cccs1)N1CCc2cc(S(=O)(=O)N3C[C@H](c4ccccc4)NC3=O)ccc21	20	20	1600	10					
	O=C(NC1CCCCC1)N1CCc2cc(S(=O)(=O)N3C[C@H](c4ccccc4)NC3=O)ccc21	80	60	2000	50	120	700	150	1300	150
	CC[C@]1(O)C[C@H]2CN(CCc3c([nH]c4ccccc34)[C@@](C(=O)OC)(c3cc4c(cc3OC)N(C=O)[C@H]3[C@@](O)(C(=O)OC)[C@H](OC(C)=O)[C@]5(CC)C=CCN6CC[C@]43[C@@H]65)C2)C1 [VINCRISTINE]	3	20		1					
	CN1CCN(CCOC(=O)N2CCc3cc(S(=O)(=O)N4C[C@H](c5ccccc5)NC4=O)ccc32)CC1	900	1000	30000	1000					
	O=C(c1ccncc1)N1CCc2cc(S(=O)(=O)N3C[C@H](c4ccccc4)NC3=O)ccc21	90	130	10300	80					
	O=C(CNc1ccccc1)N1CCc2cc(S(=O)(=O)N3C[C@H](c4ccccc4)NC3=O)ccc21	150	80	3500	50	100	150	150	180	150
	O=C(c1ccc([N+](=O)[O-])o1)N1CCc2cc(S(=O)(=O)N3C[C@H](c4ccccc4)NC3=O)ccc21	950	950	40000	270					
	Nc1ccc(C(=O)Nc2ccc(S(=O)(=O)N3C[C@H](c4ccccc4)NC3=O)cc2Cl)cc1	60	60	5500	60					
	O=C(c1ccco1)N1CCc2cc(S(=O)(=O)N3CC(c4cccs4)NC3=O)ccc21 (centres undefined)	60	60	4000	70					
	CCOC(=O)N1CCc2cc(S(=O)(=O)N3C[C@H](c4ccccc4)NC3=O)ccc21	80	80	1500	80					
